Literature values as cited in patent publication US20100035919A1, “COMPOUNDS USEFUL AS INHIBITORS OF PROTEIN KINASES” (ABBOTT LABORATORIES, priority 2008, published 2010).

Tests used:
Zucker obese rats = conditions: 4 weeks
rat = conditions: experimental myocardial infarction (MI); rat model of chronic hypertension induced congestive heart failure
OLETF rats = conditions: high dose
vein grafts = conditions: weeks following the procedure

Row | Structure (SMILES) | blood pressure, glucose and lipid metabolism, insulin signalling, endothelial dysfunction (Zucker obese rats) | cerebral blood flow (in vivo) | neuroprotection (under CNS ischemic conditions) | effect on ischemia-reperfusion injury, myocardial infarct size and myocardial fibrosis (rat) | development of diabetes, obesity, and dyslipidemia (OLETF rats) | serum adiponectin levels (OLETF rats) | VSMC apoptosis (vein grafts) | intimal thickening and vascular smooth muscle cell (VSMC) proliferation (vein grafts)
1 | O=S(=O)(c1cccc2cnccc12)N1CCCNCC1 [fasudil] | reduced blood pressure, corrected glucose and lipid metabolism, improved insulin signalling and endothelial dysfunction | increased cerebral blood flow | neuroprotective | decrease ischemia-reperfusion injury, myocardial infarct size, and myocardial fibrosis | completely suppressed | increased | enhanced | significantly suppressed
2 | C[C@@H](N)[C@H]1CC[C@H](C(=O)Nc2ccncc2)CC1 [Example Y-27632, Y-27632] | – | – | – | decrease ischemia-reperfusion injury, myocardial infarct size, and myocardial fibrosis | – | – | – | –
